Assay results published in patent publication US12590088B2, “Jak inhibitor compound and pharmaceutical composition including the same” (KOREA PHARMA CO., LTD., priority 2019, dated 2026).
Blank lines part the entries; values can stand above or below the compound they belong to.

How the values were obtained:
[1] = biological target: JAK2 (Homo sapiens, UniProt O60674); experiment: JAK2 IC50 measurement; type: biochemical
[2] = biological target: TYK2 (Homo sapiens, UniProt P29597); experiment: TYK2 IC50 measurement; type: biochemical
TYK2, sequence (P29597 whole entry): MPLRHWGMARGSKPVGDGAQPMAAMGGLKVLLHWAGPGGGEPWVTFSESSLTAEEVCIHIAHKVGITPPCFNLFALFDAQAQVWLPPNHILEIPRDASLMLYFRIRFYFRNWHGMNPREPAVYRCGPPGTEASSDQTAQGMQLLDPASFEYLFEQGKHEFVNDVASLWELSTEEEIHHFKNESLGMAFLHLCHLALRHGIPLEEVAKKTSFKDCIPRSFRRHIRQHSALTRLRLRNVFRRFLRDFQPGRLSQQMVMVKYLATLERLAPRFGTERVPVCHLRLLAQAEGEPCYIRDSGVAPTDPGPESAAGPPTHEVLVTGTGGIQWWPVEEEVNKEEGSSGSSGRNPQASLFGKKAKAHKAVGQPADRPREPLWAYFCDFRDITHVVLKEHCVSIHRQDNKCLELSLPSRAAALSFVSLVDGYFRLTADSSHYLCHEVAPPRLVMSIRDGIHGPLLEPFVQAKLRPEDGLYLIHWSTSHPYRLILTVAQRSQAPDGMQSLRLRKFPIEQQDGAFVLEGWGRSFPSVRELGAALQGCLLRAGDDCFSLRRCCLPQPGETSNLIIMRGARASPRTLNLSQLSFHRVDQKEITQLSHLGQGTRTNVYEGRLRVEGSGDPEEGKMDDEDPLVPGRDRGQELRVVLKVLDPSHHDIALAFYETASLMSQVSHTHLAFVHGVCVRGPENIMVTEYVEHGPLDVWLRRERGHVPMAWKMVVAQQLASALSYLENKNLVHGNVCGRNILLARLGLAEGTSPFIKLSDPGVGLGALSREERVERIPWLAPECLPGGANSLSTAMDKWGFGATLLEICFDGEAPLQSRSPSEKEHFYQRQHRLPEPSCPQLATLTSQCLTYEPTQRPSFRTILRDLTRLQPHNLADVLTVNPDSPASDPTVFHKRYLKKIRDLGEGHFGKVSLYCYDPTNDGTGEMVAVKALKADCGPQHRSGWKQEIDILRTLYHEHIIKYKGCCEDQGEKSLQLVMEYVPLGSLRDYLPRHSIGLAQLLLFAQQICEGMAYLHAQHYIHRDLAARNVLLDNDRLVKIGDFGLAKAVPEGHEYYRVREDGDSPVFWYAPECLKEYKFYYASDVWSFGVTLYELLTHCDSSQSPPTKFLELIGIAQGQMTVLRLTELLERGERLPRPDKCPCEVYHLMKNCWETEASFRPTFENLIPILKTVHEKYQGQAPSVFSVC

[3] = biological target: T1, JAK3 (Homo sapiens, UniProt P52333); experiment: JAK3 IC50 measurement; type: biochemical
T1 sequence (P52333 1-1124): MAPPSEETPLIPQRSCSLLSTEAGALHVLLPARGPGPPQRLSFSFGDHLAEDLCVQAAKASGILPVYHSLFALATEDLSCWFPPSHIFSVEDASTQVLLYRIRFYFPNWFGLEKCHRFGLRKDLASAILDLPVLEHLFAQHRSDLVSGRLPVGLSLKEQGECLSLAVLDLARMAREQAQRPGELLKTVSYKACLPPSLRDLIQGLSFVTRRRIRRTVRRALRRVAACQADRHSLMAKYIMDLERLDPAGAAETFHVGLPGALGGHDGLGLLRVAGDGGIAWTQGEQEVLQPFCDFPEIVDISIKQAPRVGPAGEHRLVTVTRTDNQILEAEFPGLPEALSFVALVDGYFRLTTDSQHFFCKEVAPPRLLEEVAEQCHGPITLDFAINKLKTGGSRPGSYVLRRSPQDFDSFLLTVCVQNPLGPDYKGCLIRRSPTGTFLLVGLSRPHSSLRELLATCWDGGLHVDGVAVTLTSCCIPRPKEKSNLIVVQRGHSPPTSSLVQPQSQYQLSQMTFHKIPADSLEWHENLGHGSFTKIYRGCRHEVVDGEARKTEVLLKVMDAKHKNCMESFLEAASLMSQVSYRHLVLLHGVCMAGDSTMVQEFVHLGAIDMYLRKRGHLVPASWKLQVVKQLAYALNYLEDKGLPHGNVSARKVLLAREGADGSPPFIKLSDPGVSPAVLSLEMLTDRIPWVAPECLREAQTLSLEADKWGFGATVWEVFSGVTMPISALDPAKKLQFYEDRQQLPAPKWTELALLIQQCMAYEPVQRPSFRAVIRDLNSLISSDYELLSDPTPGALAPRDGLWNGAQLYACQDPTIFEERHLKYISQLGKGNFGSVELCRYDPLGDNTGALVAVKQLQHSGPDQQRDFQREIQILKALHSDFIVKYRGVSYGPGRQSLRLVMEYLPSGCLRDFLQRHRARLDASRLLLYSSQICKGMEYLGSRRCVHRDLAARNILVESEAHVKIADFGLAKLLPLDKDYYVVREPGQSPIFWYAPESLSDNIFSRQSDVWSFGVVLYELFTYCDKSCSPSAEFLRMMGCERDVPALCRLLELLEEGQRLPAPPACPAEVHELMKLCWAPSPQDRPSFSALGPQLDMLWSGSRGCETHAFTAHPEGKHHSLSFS

[4] = biological target: JAK1 (Homo sapiens, UniProt P23458); experiment: JAK1 IC50 measurement; type: biochemical
JAK1, sequence (P23458 whole entry): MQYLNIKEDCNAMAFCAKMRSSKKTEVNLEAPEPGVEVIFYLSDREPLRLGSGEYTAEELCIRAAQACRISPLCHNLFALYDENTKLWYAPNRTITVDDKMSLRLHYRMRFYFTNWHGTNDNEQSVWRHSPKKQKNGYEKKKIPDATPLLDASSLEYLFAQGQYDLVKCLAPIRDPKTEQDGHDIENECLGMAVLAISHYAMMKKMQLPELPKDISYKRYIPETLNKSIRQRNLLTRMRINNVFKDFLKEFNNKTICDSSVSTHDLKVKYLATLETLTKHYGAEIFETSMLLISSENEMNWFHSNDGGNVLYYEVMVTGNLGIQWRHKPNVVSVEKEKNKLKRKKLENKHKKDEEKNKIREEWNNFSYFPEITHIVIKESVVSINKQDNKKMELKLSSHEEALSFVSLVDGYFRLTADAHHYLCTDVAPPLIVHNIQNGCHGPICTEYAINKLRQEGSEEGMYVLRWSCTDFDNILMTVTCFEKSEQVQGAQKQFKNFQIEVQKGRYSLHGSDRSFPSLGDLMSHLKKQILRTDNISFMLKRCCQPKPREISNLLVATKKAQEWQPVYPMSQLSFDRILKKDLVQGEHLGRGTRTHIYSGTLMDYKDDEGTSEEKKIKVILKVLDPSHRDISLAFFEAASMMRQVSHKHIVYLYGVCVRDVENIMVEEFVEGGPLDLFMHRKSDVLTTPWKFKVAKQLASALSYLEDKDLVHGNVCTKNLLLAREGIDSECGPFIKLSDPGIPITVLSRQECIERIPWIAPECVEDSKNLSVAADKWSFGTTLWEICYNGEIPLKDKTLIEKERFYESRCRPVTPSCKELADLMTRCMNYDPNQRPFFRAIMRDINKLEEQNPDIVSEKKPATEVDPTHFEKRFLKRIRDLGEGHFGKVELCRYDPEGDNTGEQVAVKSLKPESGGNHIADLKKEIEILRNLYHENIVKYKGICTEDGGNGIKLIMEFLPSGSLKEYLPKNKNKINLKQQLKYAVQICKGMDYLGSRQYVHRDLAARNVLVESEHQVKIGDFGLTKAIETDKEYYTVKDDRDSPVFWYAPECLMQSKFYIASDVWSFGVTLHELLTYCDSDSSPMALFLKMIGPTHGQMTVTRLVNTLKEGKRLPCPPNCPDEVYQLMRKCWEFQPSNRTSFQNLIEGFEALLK

[5] = biological target: T1, JAK3; experiment: Cell-based assay on Janus kinase inhibitors, JAK3 (GI50)

JAK2, sequence (O60674 whole entry): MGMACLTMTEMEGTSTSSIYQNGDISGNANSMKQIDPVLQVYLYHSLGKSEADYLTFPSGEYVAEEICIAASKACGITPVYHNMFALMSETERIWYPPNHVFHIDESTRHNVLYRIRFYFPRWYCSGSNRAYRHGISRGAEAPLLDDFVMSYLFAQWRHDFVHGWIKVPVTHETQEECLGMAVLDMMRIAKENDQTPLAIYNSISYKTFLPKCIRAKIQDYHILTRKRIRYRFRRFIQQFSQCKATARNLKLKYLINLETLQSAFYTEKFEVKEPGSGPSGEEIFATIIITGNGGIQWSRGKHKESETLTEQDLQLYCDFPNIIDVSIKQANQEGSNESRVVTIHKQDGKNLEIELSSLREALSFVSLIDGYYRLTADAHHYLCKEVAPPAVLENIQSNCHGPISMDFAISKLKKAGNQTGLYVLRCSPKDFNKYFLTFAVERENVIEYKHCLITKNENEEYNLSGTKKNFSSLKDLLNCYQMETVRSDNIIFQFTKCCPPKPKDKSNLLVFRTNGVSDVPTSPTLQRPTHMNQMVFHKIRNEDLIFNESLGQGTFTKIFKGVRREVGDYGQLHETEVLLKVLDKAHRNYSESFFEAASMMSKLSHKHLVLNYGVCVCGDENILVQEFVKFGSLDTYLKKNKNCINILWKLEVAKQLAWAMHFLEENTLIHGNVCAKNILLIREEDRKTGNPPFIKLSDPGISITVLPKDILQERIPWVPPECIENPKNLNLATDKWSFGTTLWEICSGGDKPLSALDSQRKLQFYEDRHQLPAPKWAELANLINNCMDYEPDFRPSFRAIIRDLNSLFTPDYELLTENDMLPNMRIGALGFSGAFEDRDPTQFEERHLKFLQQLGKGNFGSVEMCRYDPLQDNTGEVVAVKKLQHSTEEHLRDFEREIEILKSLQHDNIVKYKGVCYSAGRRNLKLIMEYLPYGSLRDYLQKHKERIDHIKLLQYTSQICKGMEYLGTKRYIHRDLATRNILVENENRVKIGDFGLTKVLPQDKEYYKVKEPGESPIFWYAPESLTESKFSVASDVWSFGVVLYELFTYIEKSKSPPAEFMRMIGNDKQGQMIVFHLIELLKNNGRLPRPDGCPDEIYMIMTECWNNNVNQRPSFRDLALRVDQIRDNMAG

Compound: CNC(=O)c1cnc2[nH]ccc2c1N[C@@H]1CCN(Cc2cccc(Cl)c2)[C@@H](C)C1 (relative stereo) [Compound 20b, 4-((trans-1-(3-Chlorobenzyl)-2-methylpiperidin-4-yl)amino)-N-methyl-11H-pyrrolo[2,3-b]pyridine-5-carboxamide]
GI50 [5]: 8.24 µM

Compound: CNC(=O)c1cnc2[nH]ccc2c1N[C@H]1CCCN(Cc2cccc(Cl)c2)C1 [Compound 18a, (S)-4-((1-(3-Chlorobenzyl)piperidin-3-yl)amino)-N-methyl-1H-pyrrolo[2,3-b]pyridine-5-carboxamide]
IC50 [4]: 1.87 µM

Compound: CNC(=O)c1cnc2[nH]ccc2c1NC1CC(NCc2ccc(Cl)cc2)C1 (stereo not drawn) [Compound 16c, 4-((3-((4-Chlorobenzyl)amino)cyclobutyl)amino)-N-methyl-1H-pyrrolo[2,3-b]pyridine-5-carboxamide]
IC50 [4]: 0.0138 µM

Compound: CNC(=O)c1cnc2[nH]ccc2c1NC1CC(NCc2cccc(Cl)c2)C1 (stereo not drawn) [Compound 16b, 4-((3-((3-Chlorobenzyl)amino)cyclobutyl)amino)-N-methyl-1H-pyrrolo[2,3-b]pyridine-5-carboxamide]
IC50 [4]: 0.016 µM

Continued, values first:

IC50 [1]: 0.0588 µM
IC50 [2]: 0.0922 µM
IC50 [3]: 0.0447 µM
Compound: CNC(=O)c1cnc2[nH]ccc2c1NC1CC2CCC(C1)N2Cc1cccc(C#N)c1 (stereo not drawn) [Compound 17f, 4-((8-(3-Cyanobenzyl)-8-azabicyclo[3.2.1]octan-3-yl)amino)-N-methyl-1H-pyrrolo[2,3-b]pyridine-5-carboxamide]

IC50 [1]: 0.533 µM
Selectivity for JAK1 JAK2/JAK1 [1]: 0.764
IC50 [4]: 0.697 µM
IC50 [2]: 1.79 µM
Selectivity for JAK1 TYK2/JAK1 [2]: 2.56
IC50 [3]: 3.43 µM
Selectivity for JAK1 JAK3/JAK1 ([3]; ratio of IC50 values): 4.92
Compound: CNC(=O)c1cnc2[nH]ccc2c1N[C@H]1CCCN(Cc2cccc(OC)c2)C1 [Compound 18b, (S)-4-((1-(3-Methoxybenzyl)piperidin-3-yl)amino)-N-methyl-1H-pyrrolo[2,3-b]pyridine-5-carboxamide]

IC50 [4]: 0.13 µM
Compound: CNC(=O)c1cnc2[nH]ccc2c1NC1CC(NCc2ccccc2)C1 (stereo not drawn) [Compound 16a, 4-((3-(Benzylamino)cyclobutyl)amino)-N-methyl-1H-pyrrolo[2,3-b]pyridine-5-carboxamide]
